Earlier results as cited in patent US7625920B2, “Fluorinated 4-azasteroid derivatives as androgen receptor modulators” (priority 2003, dated 2009).

Assays:
[1] = after 7 years of treatment
[2] = median of 22 months of treatment

In the case of `NCCCC(O)(P(=O)([O-])O)P(=O)(O)O.O.O.O.[Na+]` [alendronate, (4-amino-1-hydroxybutylidene)-bis-phosphonate monosodium trihydrate], the “increase in spinal BMD” value [1] is listed as 11%.

In the case of “hPTH(1-34): human parathyroid hormone 1-34 fragment (SVSEIQLMHNLGKHLNSMERVEWLRKKLQDVHNF; Parathyroid hormone; UniProt P01270 32-65, looked up, fragment)”, the “reduction in nonvertebral fractures” value [2] is listed as 54% and the “reduction in spine fractures” value [2] is listed as ≥ 65%.
